Assay results: ChEMBL document CHEMBL4385660, “5-Chloro-2-thiophenyl-1,2,3-triazolylmethyldihydroquinolines as dual inhibitors of Mycobacterium tuberculosis and influenza virus: Synthesis and evaluation” (Bioorg Med Chem Lett, 2019)
Converted amounts (≈) assume the structure as drawn.

Tests used:
[1] = system: Mycobacterium tuberculosis; assay: Antimycobacterial against Mycobacterium tuberculosis H37Rv incubated for 7 days by MABA assay; type: functional; settings: 168 h
Influenza A virus = assay: Antiviral activity against Influenza A virus (A/Puerto Rico/8/1934(H1N1)) infected in MDCK cells assessed as reduction in virus titer using cells pre-treated with compound followed by virus infection for 24 hrs by hemagglutination test; type: functional, organism-based
[2] = Selectivity index, ratio of CC50 for cytotoxicity in MDCK cells to IC50 for antiviral activity against Influenza A virus (A/Puerto Rico/8/1934(H1N1)) infected in MDCK cells; type: toxicity, cell-based; settings: dog, read-out: Ratio CC50/IC50
[3] = Cytotoxicity in MDCK cells assessed as reduction in cell viability incubated for 48 hrs by MTT assay; type: cell-based, Canis lupus familiaris; settings: dog
[4] = system: Mycobacterium tuberculosis; assay: Antimycobacterial against Mycobacterium tuberculosis; type: functional

Compound | MIC [1] [µg/mL] | IC50 (Influenza A virus) [µg/mL] | selectivity ratio [2] | CC50 at 48 h [3] [µg/mL] | MIC [4] [µg/mL]
CC[C@@H](CO)NCCN[C@@H](CC)CO [ETHAMBUTOL] | 3.13 (≈ 15.3 µM) | – | – | – | –
CO[C@H]1/C=C/O[C@@]2(C)Oc3c(C)c(O)c4c(O)c(c(/C=N/N5CCN(C)CC5)c(O)c4c3C2=O)NC(=O)/C(C)=C\C=C\[C@H](C)[C@H](O)[C@@H](C)[C@@H](O)[C@@H](C)[C@H](OC(C)=O)[C@@H]1C [RIFAMPIN] | 0.2 (≈ 0.243 µM) | – | – | – | –
ClC1=C(Cn2cc(-c3ccc(Cl)c(Cl)c3)nn2)CCc2nc(-c3cccs3)ccc21 | 25 (≈ 52.8 µM) | 26 (≈ 54.9 µM) | 12 | > 300 | –
CC(C)(C)c1nn(-c2cc(Cl)cc(Cl)c2OCc2cn(CC3=C(Cl)c4ccc(-c5cccs5)nc4CC3)nn2)c(=O)o1 | 25 (≈ 38.8 µM) | > 300 | 1 | > 300 | –
Fc1ccc(-c2cn(CC3=C(Cl)c4ccc(-c5cccs5)nc4CC3)nn2)cc1 | 12.5 (≈ 29.6 µM) | 80 (≈ 189 µM) | 1 | 100 (≈ 236 µM) | –
CC(C)(C)c1ccc(-c2cn(CC3=C(Cl)c4ccc(-c5cccs5)nc4CC3)nn2)cc1 | 3.12 (≈ 6.77 µM) | 64 (≈ 139 µM) | 3 | 172 (≈ 373 µM) | –
CN(C)Cc1ccc(-c2cc3cc(Br)ccc3nc2OCc2ccncc2)cc1 | – | – | – | – | 0.43 (≈ 0.959 µM)
ClC1=C(Cn2cc(C3CC3)nn2)CCc2nc(-c3cccs3)ccc21 | 6.25 (≈ 16.9 µM) | > 300 | 1 | > 300 | –
FC(F)(F)c1cc(-c2cn(CC3=C(Cl)c4ccc(-c5cccs5)nc4CC3)nn2)cc(C(F)(F)F)c1 | 25 (≈ 46.2 µM) | > 30 | 1 | 35 (≈ 64.7 µM) | –
O=C(O)c1cn(C2CC2)c2cc(N3CCNCC3)c(F)cc2c1=O [CIPROFLOXACIN] | 1.56 (≈ 4.71 µM) | – | – | – | –
CCC(CC)O[C@@H]1C=C(C(=O)O)C[C@H](N)[C@H]1NC(C)=O [OSELTAMIVIR CARBOXYLATE] | – | 0.06 (≈ 0.211 µM) | > 500 | > 30 | –
FC(F)(F)Oc1ccc(-c2cn(CC3=C(Cl)c4ccc(-c5cccs5)nc4CC3)nn2)cc1 | 25 (≈ 51.1 µM) | 65 (≈ 133 µM) | 5 | > 300 | –
CC(N)C12CC3CC(CC(C3)C1)C2 (configuration not stated) [RIMANTADINE] | – | 10 (≈ 55.8 µM) | 6 | 62 (≈ 346 µM) | –
CCCCCc1cn(CC2=C(Cl)c3ccc(-c4cccs4)nc3CC2)nn1 | 6.25 (≈ 15.7 µM) | 17 (≈ 42.6 µM) | 3 | 50 (≈ 125 µM) | –
FC(F)(F)c1ccccc1-c1cn(CC2=C(Cl)c3ccc(-c4cccs4)nc3CC2)nn1 | 12.5 (≈ 26.4 µM) | 160 (≈ 338 µM) | 2 | > 300 | –
CN(C)CCc1ccc(-c2cc3cc(Br)ccc3nc2OCc2cccc3ccccc23)cc1 | – | – | – | – | 0.43 (≈ 0.841 µM)
Fc1ccc(-c2cn(CC3=C(Cl)c4ccc(-c5cccs5)nc4CC3)nn2)c(F)c1 | 25 (≈ 56.7 µM) | 165 (≈ 374 µM) | 1 | 188 (≈ 426 µM) | –
O=[N+]([O-])c1ccc(-c2cn(CC3=C(Cl)c4ccc(-c5cccs5)nc4CC3)nn2)cc1 | 12.5 (≈ 27.8 µM) | > 30 | 1 | 40 (≈ 88.9 µM) | –
COc1ccc(-c2cn(CC3=C(Cl)c4ccc(-c5cccs5)nc4CC3)nn2)cc1 | 25 (≈ 57.5 µM) | 160 (≈ 368 µM) | 2 | > 300 | –
NNC(=O)c1ccncc1 [ISONIAZID] | 0.1 (≈ 0.729 µM) | – | – | – | –
ClC1=C(Cn2cc(-c3ccsc3)nn2)CCc2nc(-c3cccs3)ccc21 | 25 (≈ 60.8 µM) | 195 (≈ 475 µM) | 15 | > 300 | –
ClC1=C(Cn2cc(-c3cc4ccccc4c4ccccc34)nn2)CCc2nc(-c3cccs3)ccc21 | 25 (≈ 49.5 µM) | > 300 | 1 | > 300 | –
O=C1c2ccccc2C(=O)N1Cc1cn(CC2=C(Cl)c3ccc(-c4cccs4)nc3CC2)nn1 | 25 (≈ 51.2 µM) | 200 (≈ 410 µM) | 2 | > 300 | –
